The text below walks through data of ChEMBL document CHEMBL5038624, “Construction and activity evaluation of novel dual-target (SE/CYP51) anti-fungal agents containing amide naphthyl structure” (Eur J Med Chem, 2022).

What all share (format): functional
One test concerns Nakaseomyces glabratus. The experiment in a line: Antifungal activity against Candida glabrata ATCC 0001 assessed as reduction in fungal growth incubated for 72 hrs by CLSI protocol based broth microdilution method. On the technique in general: In broth dilution the organism is exposed to a series of concentrations in liquid medium.
A further test concerns Pichia kudriavzevii. The experiment in a line: Antifungal activity against Candida krusei ATCC 6258 assessed as reduction in fungal growth incubated for 72 hrs by CLSI protocol based broth microdilution method.
Test [1] concerns Candida albicans. The experiment in a line: Antifungal activity against Candida albicans SC5314 assessed as reduction in fungal growth incubated for 72 hrs by CLSI protocol based broth microdilution method.
The next test deals with Aspergillus fumigatus. As to the kind of experiment: Antifungal activity against Aspergillus fumigatus KM8001 assessed as reduction in fungal growth incubated for 72 hrs by CLSI protocol based broth microdilution method.
In the next test the test system is Candida tropicalis. As to the kind of experiment: Antifungal activity against Candida tropicalis ATCC 1369 assessed as reduction in fungal growth incubated for 72 hrs by CLSI protocol based broth microdilution method.
In test [2] the test system is Candida albicans. As to the kind of experiment: Antifungal activity against Candida albicans strain 901 assessed as reduction in fungal growth incubated for 72 hrs by CLSI protocol based broth microdilution method.
In test [3] the test system is Candida albicans. As to the kind of experiment: Antifungal activity against Candida albicans strain CaR assessed as reduction in fungal growth incubated for 72 hrs by CLSI protocol based broth microdilution method.
The test system of test [4] is Candida albicans. The experiment in a line: Antifungal activity against Candida albicans strain 904 assessed as reduction in fungal growth incubated for 72 hrs by CLSI protocol based broth microdilution method.
Test [5] relates to Candida albicans. As to the kind of experiment: Antifungal activity against Candida albicans strain 632 assessed as reduction in fungal growth incubated for 72 hrs by CLSI protocol based broth microdilution method.
For test [6], the system named is Candida albicans. The experiment in a line: Antifungal activity against Candida albicans strain 17 assessed as reduction in fungal growth incubated for 72 hrs by CLSI protocol based broth microdilution method.

Converted amounts (≈) assume the structure as drawn.

Regarding `O=C(/C=C/c1cccc2ccccc12)NC(C(=O)NCc1ccncc1)c1ccccc1` (centres undefined), the MIC50 (as a rule, an inhibitory concentration at the 50% level, which refers to growth in some studies and to a panel of isolates in others) in the test with Nakaseomyces glabratus is 0.5 mg/L (≈ 1.19 µM); with Pichia kudriavzevii, 4 mg/L (≈ 9.49 µM); with Candida albicans [1] it was 2 mg/L (≈ 4.74 µM); in the test on Aspergillus fumigatus, over 8 mg/L; in the test with Candida tropicalis, 2 mg/L (≈ 4.74 µM).

On to `O=C(/C=C/c1cccc2ccccc12)NC(Cn1ccnc1)c1ccccc1` (centres undefined), for which the MIC50 is 4 mg/L (≈ 10.9 µM) in the test on Candida albicans [2]; 0.5 mg/L (≈ 1.36 µM) in the test on Nakaseomyces glabratus; 0.125 mg/L (≈ 0.34 µM) in the test on Pichia kudriavzevii; 0.125 mg/L (≈ 0.34 µM) in the test with Candida albicans [1]; 4 mg/L (≈ 10.9 µM) with Candida albicans [3]; over 8 mg/L in the test on Candida albicans [4]. Moreover, the MIC50 was over 8 mg/L in the test with Candida albicans [5], 2 mg/L (≈ 5.44 µM) in the test with Aspergillus fumigatus, 0.25 mg/L (≈ 0.68 µM) in the test with Candida tropicalis and 4 mg/L (≈ 10.9 µM) with Candida albicans [6].

Consider `O=C(/C=C/c1cccc2ccccc12)NCC(=O)c1ccccc1`, for which the MIC50 with Candida albicans [1] was 8 mg/L (≈ 25.4 µM).

For the compound `O=C(NC(Cn1cncn1)C(=O)c1ccccc1)c1ccc2ccccc2c1` (centres undefined), the MIC50 in the test with Nakaseomyces glabratus turned out to be 0.5 mg/L (≈ 1.35 µM); in the test with Pichia kudriavzevii, 1 mg/L (≈ 2.7 µM); with Candida albicans [1], 0.25 mg/L (≈ 0.675 µM); with Aspergillus fumigatus, 4 mg/L (≈ 10.8 µM); with Candida tropicalis, 0.25 mg/L (≈ 0.675 µM).

Turning to `O=C(NC(Cn1cncn1)c1ccccc1)c1ccc2ccccc2c1` (centres undefined), the MIC50 in the test with Nakaseomyces glabratus was 1 mg/L (≈ 2.92 µM); in the test on Pichia kudriavzevii it was 0.5 mg/L (≈ 1.46 µM); with Candida albicans [1] it was 0.5 mg/L (≈ 1.46 µM); in the test with Aspergillus fumigatus, 4 mg/L (≈ 11.7 µM); in the test on Candida tropicalis, 0.5 mg/L (≈ 1.46 µM).

With `O=C(/C=C/c1cccc2ccccc12)NC(Cn1ccnc1)C(=O)c1ccccc1` (centres undefined), the MIC50 in the test with Nakaseomyces glabratus is 0.5 mg/L (≈ 1.26 µM); in the test on Pichia kudriavzevii, 1 mg/L (≈ 2.53 µM); with Candida albicans [1], 0.25 mg/L (≈ 0.632 µM); in the test on Aspergillus fumigatus it was over 8 mg/L; with Candida tropicalis, 0.5 mg/L (≈ 1.26 µM).

Consider `O=C(/C=C/c1cccc2ccccc12)NC(C(=O)NCc1cccnc1)c1ccccc1` (centres undefined), for which the MIC50 was 2 mg/L (≈ 4.74 µM) with Nakaseomyces glabratus; 2 mg/L (≈ 4.74 µM) with Pichia kudriavzevii; 4 mg/L (≈ 9.49 µM) with Candida albicans [1]; over 8 mg/L in the test on Aspergillus fumigatus; 0.5 mg/L (≈ 1.19 µM) in the test with Candida tropicalis.

For `NC(=O)/C=C/c1cccc2ccccc12`, the MIC50 in the test on Candida albicans [1] stood at 32 mg/L (≈ 162 µM).

Regarding `O=C(/C=C/c1cccc2ccccc12)NC(C(=O)Nc1ccncc1)c1ccccc1` (centres undefined), the MIC50 with Nakaseomyces glabratus is 0.25 mg/L (≈ 0.614 µM); in the test with Pichia kudriavzevii, 0.5 mg/L (≈ 1.23 µM); in the test on Candida albicans [1] it was 0.5 mg/L (≈ 1.23 µM); with Aspergillus fumigatus it was over 8 mg/L; in the test on Candida tropicalis it was 0.5 mg/L (≈ 1.23 µM).

Take `O=C(NC(Cn1ccnc1)c1ccccc1)c1cccc2ccccc12` (centres undefined): the MIC50 in the test with Nakaseomyces glabratus was 1 mg/L (≈ 2.93 µM); in the test with Pichia kudriavzevii it was 1 mg/L (≈ 2.93 µM); in the test on Candida albicans [1], 0.5 mg/L (≈ 1.46 µM); in the test with Aspergillus fumigatus, over 8 mg/L; in the test on Candida tropicalis, 0.5 mg/L (≈ 1.46 µM).

As for `O=C(NC(Cn1cncn1)C(=O)c1ccccc1)c1cccc2ccccc12` (centres undefined), the MIC50 in the test on Nakaseomyces glabratus was 0.5 mg/L (≈ 1.35 µM); in the test with Pichia kudriavzevii, 0.5 mg/L (≈ 1.35 µM); with Candida albicans [1] it was 0.5 mg/L (≈ 1.35 µM); with Aspergillus fumigatus, over 8 mg/L; in the test on Candida tropicalis it was 0.25 mg/L (≈ 0.675 µM).

Consider `O=C(/C=C/c1cccc2ccccc12)NCc1ccccc1`, for which, in the test on Candida albicans [1], the MIC50 was 8 mg/L (≈ 27.8 µM).

As to `O=C(NC(Cn1ccnc1)C(=O)c1ccccc1)c1cccc2ccccc12` (centres undefined), the MIC50 amounted to 1 mg/L (≈ 2.71 µM) in the test on Nakaseomyces glabratus; 0.25 mg/L (≈ 0.677 µM) in the test on Pichia kudriavzevii; 0.5 mg/L (≈ 1.35 µM) in the test with Candida albicans [1]; 4 mg/L (≈ 10.8 µM) with Aspergillus fumigatus; 0.5 mg/L (≈ 1.35 µM) with Candida tropicalis.

Take `O=C(/C=C/c1cccc2ccccc12)NC(Cn1cncn1)C(=O)c1ccccc1` (centres undefined): the MIC50 in the test with Nakaseomyces glabratus turned out to be 0.25 mg/L (≈ 0.631 µM); with Pichia kudriavzevii, 0.5 mg/L (≈ 1.26 µM); in the test with Candida albicans [1], 0.25 mg/L (≈ 0.631 µM); in the test with Aspergillus fumigatus it was 4 mg/L (≈ 10.1 µM); in the test on Candida tropicalis, 0.125 mg/L (≈ 0.315 µM).

For `O=C(NC(Cn1ccnc1)C(=O)c1ccccc1)c1ccc2ccccc2c1` (centres undefined), the MIC50 in the test on Nakaseomyces glabratus was 0.25 mg/L (≈ 0.677 µM); in the test on Pichia kudriavzevii, 0.5 mg/L (≈ 1.35 µM); in the test on Candida albicans [1] it was 0.125 mg/L (≈ 0.338 µM); in the test with Aspergillus fumigatus it was over 8 mg/L; in the test with Candida tropicalis it was 0.5 mg/L (≈ 1.35 µM).

Turning to `c1ccc2ccccc2c1` [NAPHTHALENE], in the test with Candida albicans [1], the MIC50 is over 64 mg/L.

On to `O=C(/C=C/c1ccc2ccccc2c1)NC(Cn1ccnc1)c1ccccc1` (centres undefined), for which the MIC50 with Nakaseomyces glabratus was determined as 0.5 mg/L (≈ 1.36 µM); in the test with Pichia kudriavzevii, 1 mg/L (≈ 2.72 µM); with Candida albicans [1], 0.5 mg/L (≈ 1.36 µM); in the test on Aspergillus fumigatus, 4 mg/L (≈ 10.9 µM); with Candida tropicalis, 0.5 mg/L (≈ 1.36 µM).

`O=C(/C=C/c1ccc2ccccc2c1)NC(C(=O)NCc1ccncc1)c1ccccc1` (centres undefined): the MIC50 with Nakaseomyces glabratus was 1 mg/L (≈ 2.37 µM); with Pichia kudriavzevii, 2 mg/L (≈ 4.74 µM); with Candida albicans [1] it was 1 mg/L (≈ 2.37 µM); with Aspergillus fumigatus, over 8 mg/L; in the test with Candida tropicalis, 1 mg/L (≈ 2.37 µM).

Turning to `O=C(/C=C/c1ccc2ccccc2c1)NC(C(=O)Nc1ccncc1)c1ccccc1` (centres undefined), the MIC50 worked out at 0.5 mg/L (≈ 1.23 µM) in the test with Nakaseomyces glabratus; 0.5 mg/L (≈ 1.23 µM) in the test on Pichia kudriavzevii; 0.5 mg/L (≈ 1.23 µM) in the test on Candida albicans [1]; 2 mg/L (≈ 4.91 µM) in the test on Aspergillus fumigatus; 0.5 mg/L (≈ 1.23 µM) with Candida tropicalis.

Take `O=C(NC(Cn1ccnc1)c1ccccc1)c1ccc2ccccc2c1` (centres undefined): the MIC50 with Nakaseomyces glabratus was 0.25 mg/L (≈ 0.732 µM); in the test with Pichia kudriavzevii, 0.5 mg/L (≈ 1.46 µM); in the test on Candida albicans [1], 0.5 mg/L (≈ 1.46 µM); in the test with Aspergillus fumigatus, over 8 mg/L; in the test with Candida tropicalis, 0.5 mg/L (≈ 1.46 µM).

As for `O=C(NC(Cn1cncn1)c1ccccc1)c1cccc2ccccc12` (centres undefined), the MIC50 in the test with Nakaseomyces glabratus is 2 mg/L (≈ 5.84 µM); with Pichia kudriavzevii, 0.5 mg/L (≈ 1.46 µM); in the test with Candida albicans [1], 0.25 mg/L (≈ 0.73 µM); in the test on Aspergillus fumigatus it was over 8 mg/L; in the test with Candida tropicalis it was 0.125 mg/L (≈ 0.365 µM).

As for `O=C(/C=C/c1ccc2ccccc2c1)NC(Cn1ccnc1)C(=O)c1ccccc1` (centres undefined), the MIC50 with Nakaseomyces glabratus was 0.25 mg/L (≈ 0.632 µM); in the test with Pichia kudriavzevii, 0.5 mg/L (≈ 1.26 µM); in the test on Candida albicans [1] it was 0.5 mg/L (≈ 1.26 µM); with Aspergillus fumigatus, over 8 mg/L; with Candida tropicalis, 0.25 mg/L (≈ 0.632 µM).

As to `O=C(/C=C/c1cccc2ccccc12)NC(C(=O)Nc1cccnc1)c1ccccc1` (centres undefined), the MIC50 was found to be 1 mg/L (≈ 2.45 µM) in the test on Nakaseomyces glabratus; 0.5 mg/L (≈ 1.23 µM) in the test on Pichia kudriavzevii; 0.5 mg/L (≈ 1.23 µM) in the test with Candida albicans [1]; 4 mg/L (≈ 9.82 µM) with Aspergillus fumigatus; 0.5 mg/L (≈ 1.23 µM) with Candida tropicalis.

`O=C(/C=C/c1ccc2ccccc2c1)NC(Cn1cncn1)c1ccccc1` (centres undefined): the MIC50 in the test on Nakaseomyces glabratus is 0.5 mg/L (≈ 1.36 µM); in the test with Pichia kudriavzevii it was 0.5 mg/L (≈ 1.36 µM); with Candida albicans [1], 0.25 mg/L (≈ 0.679 µM); in the test with Aspergillus fumigatus it was over 8 mg/L; in the test on Candida tropicalis, 0.25 mg/L (≈ 0.679 µM).

Consider `O=C(/C=C/c1ccc2ccccc2c1)NC(C(=O)Nc1cccnc1)c1ccccc1` (centres undefined), for which the MIC50 came out at 0.25 mg/L (≈ 0.614 µM) with Nakaseomyces glabratus; 1 mg/L (≈ 2.45 µM) with Pichia kudriavzevii; 0.5 mg/L (≈ 1.23 µM) in the test with Candida albicans [1]; 4 mg/L (≈ 9.82 µM) in the test with Aspergillus fumigatus; 0.25 mg/L (≈ 0.614 µM) in the test on Candida tropicalis.

On to `O=C(/C=C/c1ccc2ccccc2c1)NC(C(=O)NCc1cccnc1)c1ccccc1` (centres undefined), for which the MIC50 was 0.5 mg/L (≈ 1.19 µM) in the test on Nakaseomyces glabratus; 1 mg/L (≈ 2.37 µM) with Pichia kudriavzevii; 2 mg/L (≈ 4.74 µM) in the test on Candida albicans [1]; over 8 mg/L with Aspergillus fumigatus; 2 mg/L (≈ 4.74 µM) with Candida tropicalis.
